Calls of active or inactive are those of the source.
Assays:
[1] = biological target: DNA dC->dU-editing enzyme APOBEC-3G (Homo sapiens, UniProt Q9HC16); type: functional;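 note: Dose-response counterscreen measuring inhibition of APOBEC3G DNA deaminase activity, run while confirming APOBEC3A inhibitors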
[2] = biological target: DNA dC->dU-editing enzyme APOBEC-3A (Homo sapiens, UniProt P31941); experiment: Dose Response confirmation of small molecule APOBEC3A DNA Deaminase Inhibitors via a fluorescence-based single-stranded DNA deaminase assay. [Related pubchem assays (depositor defined):AID493011, AID493024]; type: functional
DNA dC->dU-editing enzyme APOBEC-3A, sequence (P31941 whole entry): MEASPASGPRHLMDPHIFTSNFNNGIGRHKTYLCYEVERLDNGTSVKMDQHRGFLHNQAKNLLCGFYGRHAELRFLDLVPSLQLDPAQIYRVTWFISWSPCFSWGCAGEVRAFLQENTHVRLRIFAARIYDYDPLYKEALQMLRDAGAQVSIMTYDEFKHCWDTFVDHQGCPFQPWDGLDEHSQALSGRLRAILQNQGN

[3] = HEK-293T cell viability reduction – luminescence, B-cell screen hits, cytotoxicity control for BCR NF-kB inhibitor project, dose response (AID 489021); type: functional, cell-based;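 note: HEK-293T cells carrying an NF-kB luciferase reporter; cells exposed to compound for about 14 hours before viability readout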
[4] = biological target: T1, Heat shock factor protein 1 (Mus musculus, UniProt P38532); experiment: decrease of HSF1-responsive luciferase luminescence – cell-based, NIH3T3, dose retest, confirmation (AID 2382); type: functional;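 note: NIH3T3 fibroblasts with HSF1-driven luciferase reporter stressed by proteasome inhibitor MG132; luminescence from HSF1-driven luciferase expression after 8 hours of MG132 stress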
T1 sequence (P38532 whole entry): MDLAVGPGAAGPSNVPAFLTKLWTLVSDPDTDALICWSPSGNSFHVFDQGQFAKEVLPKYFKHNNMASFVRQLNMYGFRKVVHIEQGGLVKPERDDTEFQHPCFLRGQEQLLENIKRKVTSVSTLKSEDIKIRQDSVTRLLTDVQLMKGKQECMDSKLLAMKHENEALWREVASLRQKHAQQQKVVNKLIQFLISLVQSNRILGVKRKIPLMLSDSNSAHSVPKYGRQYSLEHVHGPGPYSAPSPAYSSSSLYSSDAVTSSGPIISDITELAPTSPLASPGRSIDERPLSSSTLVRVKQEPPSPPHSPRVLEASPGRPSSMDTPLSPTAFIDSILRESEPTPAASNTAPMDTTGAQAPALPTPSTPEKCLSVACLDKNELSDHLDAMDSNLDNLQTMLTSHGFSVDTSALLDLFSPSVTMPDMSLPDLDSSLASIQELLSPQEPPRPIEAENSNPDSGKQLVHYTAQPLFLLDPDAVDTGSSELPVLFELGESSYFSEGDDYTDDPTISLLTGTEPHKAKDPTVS

[5] = biological target: T2, High affinity choline transporter 1 (Homo sapiens, UniProt Q9GZV3); experiment: human choline transporter blockers, potency – cell-based, 5-point CRC, membrane potential dye, dose response (AID 504840); type: functional
T2 sequence (Q9GZV3 whole entry): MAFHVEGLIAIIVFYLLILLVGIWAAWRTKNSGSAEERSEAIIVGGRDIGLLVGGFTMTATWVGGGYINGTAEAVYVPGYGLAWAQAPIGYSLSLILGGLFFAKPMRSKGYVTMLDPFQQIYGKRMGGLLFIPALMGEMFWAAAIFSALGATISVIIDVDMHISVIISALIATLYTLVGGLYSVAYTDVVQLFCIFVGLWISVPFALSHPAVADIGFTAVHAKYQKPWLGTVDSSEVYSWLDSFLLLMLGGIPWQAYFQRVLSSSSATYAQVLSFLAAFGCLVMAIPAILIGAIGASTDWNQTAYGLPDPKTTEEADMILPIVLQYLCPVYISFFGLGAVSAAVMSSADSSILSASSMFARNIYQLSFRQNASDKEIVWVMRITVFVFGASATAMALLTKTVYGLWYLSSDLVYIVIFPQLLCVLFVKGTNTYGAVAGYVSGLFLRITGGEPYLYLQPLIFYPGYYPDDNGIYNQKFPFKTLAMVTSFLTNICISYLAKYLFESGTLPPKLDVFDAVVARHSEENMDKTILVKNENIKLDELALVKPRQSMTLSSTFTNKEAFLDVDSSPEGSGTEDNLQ

[6] = biological target: T3, Adenosylmethionine-8-amino-7-oxononanoate aminotransferase (Mycobacterium tuberculosis, UniProt P9WQ81); experiment: Mycobacterium tuberculosis BioA enzyme inhibitor Measured in Biochemical System Using Plate Reader - 2163-02_Inhibitor_Dose_CherryPick_Activity.; type: functional, Mycobacterium tuberculosis UT205
T3 sequence (P9WQ81 whole entry): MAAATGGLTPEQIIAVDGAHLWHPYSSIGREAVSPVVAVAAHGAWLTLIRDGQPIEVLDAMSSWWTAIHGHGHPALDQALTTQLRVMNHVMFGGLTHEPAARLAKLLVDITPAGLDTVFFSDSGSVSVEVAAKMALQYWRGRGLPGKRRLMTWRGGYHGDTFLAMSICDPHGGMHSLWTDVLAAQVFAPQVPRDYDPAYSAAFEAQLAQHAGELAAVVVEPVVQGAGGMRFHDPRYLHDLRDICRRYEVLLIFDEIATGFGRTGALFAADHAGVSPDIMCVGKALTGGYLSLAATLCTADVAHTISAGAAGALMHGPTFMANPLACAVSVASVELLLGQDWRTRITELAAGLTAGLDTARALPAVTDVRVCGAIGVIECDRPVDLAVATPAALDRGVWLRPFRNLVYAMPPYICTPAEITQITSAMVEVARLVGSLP

[7] = HepG2 cell cytotoxicity, dose response, cytotoxicity control for non-replicating M. tuberculosis project (AID 489018); type: functional; settings: Mycobacterium tuberculosis
[8] = microbe, parasite or virus in culture; type: functional; settings: Mycobacterium tuberculosis
[9] = THP-1 cell cytotoxicity, dose response, cytotoxicity control for non-replicating M. tuberculosis project (AID 489025); type: functional
cells = type: functional
[10] = biological target: T4, Probable nicotinate-nucleotide adenylyltransferase (Staphylococcus aureus (strain N315), UniProt P65502); type: functional, Staphylococcus aureus subsp. aureus N315; settings: read-out: IC50_Mean;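 for IC50 Mean: confirmatory dose-response retesting of NadD inhibitor hits first found in an ultra-high-throughput screen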
T4 sequence (P65502 whole entry): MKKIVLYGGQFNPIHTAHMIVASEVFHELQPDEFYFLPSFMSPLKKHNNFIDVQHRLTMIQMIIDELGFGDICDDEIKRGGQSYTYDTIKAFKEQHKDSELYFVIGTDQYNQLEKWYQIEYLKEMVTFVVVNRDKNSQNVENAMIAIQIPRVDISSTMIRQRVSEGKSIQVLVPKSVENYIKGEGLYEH

[11] = biological target: T4, Probable nicotinate-nucleotide adenylyltransferase; type: functional, Staphylococcus aureus subsp. aureus N315
P388 = experiment: cells; type: functional; settings: Mus musculus
SN12K1 = experiment: cells; type: functional; settings: Homo sapiens
P388/ADR = experiment: cells; type: functional; settings: Mus musculus
[12] = toxicity to human HepG2 hepatoma cells – cell-based, plate reader, dry powder samples, cytotoxicity control, dose response (AID 1159569); type: functional;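 note: inhibitor potency with signal falling toward the positive control level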
[13] = P. falciparum Dd2 growth inhibitors, dose response, SYBR Green, cherry-picked samples (AID 1159567); type: functional, cell-based
[14] = growth inhibition of yeast DHODH-expressing 3D7 parasites – SYBR Green, dry powder samples, dose response (AID 1159570); type: functional, cell-based;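 note: parasite growth measured after 72 hours of compound exposure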
[15] = Dd2 malaria parasite growth inhibition potency – SYBR Green, dry powder samples, dose response (AID 1159566); type: functional, cell-based;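 note: potency for growth inhibition with lower SYBR green DNA signal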
[16] = growth inhibition of PfATP4-mutant resistant parasites – NITD609-resistant line, SYBR Green, dry powder, dose response (AID 1159571); type: functional, cell-based;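 note: parasites synchronized at ring stage by sorbitol before testing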

DNA dC->dU-editing enzyme APOBEC-3G, sequence (Q9HC16 whole entry): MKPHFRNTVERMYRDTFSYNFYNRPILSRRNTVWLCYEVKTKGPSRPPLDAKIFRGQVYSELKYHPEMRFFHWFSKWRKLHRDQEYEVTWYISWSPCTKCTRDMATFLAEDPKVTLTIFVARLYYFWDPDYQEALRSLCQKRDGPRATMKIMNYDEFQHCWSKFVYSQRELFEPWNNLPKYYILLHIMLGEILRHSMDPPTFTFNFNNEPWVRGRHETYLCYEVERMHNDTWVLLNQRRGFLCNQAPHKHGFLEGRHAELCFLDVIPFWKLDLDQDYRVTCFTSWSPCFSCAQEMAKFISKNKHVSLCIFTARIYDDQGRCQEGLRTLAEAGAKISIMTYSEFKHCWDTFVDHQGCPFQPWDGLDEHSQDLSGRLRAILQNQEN

In the case of `C[N+]1(CC(=O)OCCCc2ccccc2)CCCCC1`, the IC50 [1] was 2.42 µM (active) and the IC50 [2] was 2.1 µM (active).

For `Fc1ccc(C2=Nn3c(nnc3-c3[nH]nc4c3CCC4)SC2)cc1`, the IC50 [3] was > 80 µM (inactive).

With `Cc1ccc(-c2cc(C(=O)NCCCN3CCOCC3)no2)cc1` the EC50 [4] was 19.1 µM (active) and the IC50 [3] was > 80 µM (inactive).

In the case of `CN(Cc1ccccc1)S(=O)(=O)c1ccc2ncc(C(=O)NCC3CCCO3)c(O)c2c1` (stereo not given), the IC50 [5] was 15.2 µM (active).

For `CCOc1cc(C=C2C(=O)NC(=O)NC2=O)ccc1OS(=O)(=O)c1ccccc1`, the IC50 [5] was 12.6 µM (active).

In the case of `C=CCn1c(SCc2c(C(=O)OC)sc(N)c2C(=O)OC)nnc1-c1ccc(Cl)cc1`, the AC50 [6] was 0.244 µM (active).

For `Cc1cc(C)cc(OCC(=O)N2N=C(C(F)(F)F)CC2(O)C(C)(C)C)c1` (stereo not given), the IC50 [1] was 5.91 µM (active) and the IC50 [2] was 4.6 µM (active).

For `CC(=O)Nc1ccc2c(COC(=O)CC3Sc4ccccc4NC3=O)cc(=O)oc2c1` (stereo not given), the IC50 [1] was 30.7 µM (active) and the IC50 [2] was 19.3 µM (active).

In the case of `COc1ccc(C(CCNCc2ccc(OC(C)C)cc2)C(C)C)cc1` (stereo not given), the CC50 [7] was 13.6 µM (active), the CC50 [8] was 23.1 µM (active) and the CC50 [9] was 13.7 µM (active). The IC50 (cells) was 23 µM (active).

For `N#CC1=C(S)N=C(N)C(c2nc(-c3ccccc3)cs2)C12CCCC2` (stereo not given), the IC50 [10] was 19.1 µM (active) and the IC50 [11] was 8.09 µM (active).

In the case of `CCN(CC)C(=O)Cn1c(C)c(/C=C/c2cc[n+](C)cc2)c2ccccc21`, the IC50 [1] was 4.08 µM (active) and the IC50 [2] was 2.08 µM (active).

With `CCCCC(Br)C(=O)Nc1ccc(S(=O)(=O)Nc2cc(C)nc(C)n2)cc1` (stereo not given) the IC50 [5] was 15.9 µM (active).

With `O=C(Nc1cccnc1)C1CCN(S(=O)(=O)c2ccc(Cl)cc2)CC1` the AC50 [6] was 0.711 µM (active).

With `CC[n+]1c(C)n(Cc2ccccc2)c2ccc(Cl)cc21` the IC50 [1] was 2.27 µM (active) and the IC50 [2] was 1.39 µM (active).

In the case of `CCN(C(=O)CN1C(=O)NC(c2ccccc2)(c2ccc(C)c(C)c2)C1=O)C1CCCCC1` (stereo not given), the IC50 [3] was > 80 µM (inactive).

For `Cc1cnc(C(=O)NC2CC(C)(C)Cc3c2cnn3-c2cccc(F)c2)cn1` (stereo not given), the AC50 [6] was 1.63 µM (active).

With `Cc1n(CC(=O)c2ccc([N+](=O)[O-])cc2)c2c([n+]1CC(C)C)C(=O)c1ccccc1C2=O` the GI50 (P388) was 0.194 µM (active), the GI50 (SN12K1) was < 0.01 µM (active) and the GI50 (P388/ADR) was 22.2 µM (inactive).

In the case of `Cc1ccc(N2Cc3c(ccc4ccccc34)OP2(=S)N2CCCC2)cc1` (stereo not given), the GI50 (P388) was 18.6 µM (inactive), the GI50 (SN12K1) was > 77.6 µM (inactive) and the GI50 (P388/ADR) was 26.2 µM (inactive).

With `Cc1[nH]c(=O)[nH]c(=O)c1/C=C/C(=O)NC(CO)CC(C)C` (stereo not given) the GI50 (P388) was > 375 µM (inactive), the GI50 (SN12K1) was > 360 µM (inactive) and the GI50 (P388/ADR) was 174 µM (inactive).

With `Cc1ccccc1CSCC1Nc2ccc(C(=O)NCCc3ccccc3)cc2NC1=O` (stereo not given) the IC50 [10] was 17.2 µM (active) and the IC50 [11] was 6.55 µM (active).

For `O=C(c1cccc(F)c1)N1CC[C@@H]2[C@@H](CO)Nc3ccc(-c4cccc(F)c4)cc3[C@@H]21`, the AC50 [6] was 0.222 µM (active).

With `COCC(=O)N1CC[C@@H]2[C@@H](CO)N(C)c3ccc(-c4ccc(F)cc4)cc3[C@@H]21` the AC50 [6] was 0.948 µM (active).

In the case of `CSCC[C@@H](NC(=O)[C@H](CC(C)C)NC(=O)C(Cc1cnc[nH]1)NC(=O)CNC(=O)[C@@H](NC(=O)[C@H](C)NC(=O)[C@H](Cc1cn(C=O)c2ccccc12)NC(=O)[C@H](CCC(N)=O)NC(=O)[C@@H](N)CC(N)=O)C(C)C)C(N)=O` (stereo not given in full), the GI50 (P388) was > 100 µM (inactive), the GI50 (SN12K1) was > 100 µM (inactive) and the GI50 (P388/ADR) was > 100 µM (inactive).

In the case of `NCCCCCC(CCN)SCC1OC(n2cnc3c(N)ncnc32)C(O)C1O` (stereo not given), the GI50 (P388) was 637 µM (inactive), the GI50 (SN12K1) was 431 µM (inactive) and the GI50 (P388/ADR) was 124 µM (inactive).

With `CC(C)(C)S(=O)(=O)/C(C#N)=N/Nc1ccc(C#N)cc1` the IC50 [5] was 12 µM (active).

With `C[C@H]1CN([C@@H](C)CO)C(=O)c2cc(NC(=O)Nc3cccc4ccccc34)ccc2O[C@H]1CN(C)C(=O)Nc1ccc(C(F)(F)F)cc1` the AC50 [12] was > 100 µM (inactive), the AC50 [13] was 2.37 µM (active) and the AC50 [14] was 1.86 µM (active). The AC50 [15] was 1.5 µM (active) and the AC50 [16] was 3.76 µM (active).

In the case of `N#C[C@@H]1[C@H](c2ccc(C3=CCCCC3)cc2)[C@H](CO)N1C(=O)NC1CCCC1`, the AC50 [12] was 0.338 µM (active), the AC50 [13] was 1.96 µM (active) and the AC50 [14] was 5.81 µM (active). The AC50 [15] was 0.923 µM (active) and the AC50 [16] was 1.41 µM (active).

With `O=C(Nc1ccccc1F)N1CCCCN2[C@@H](CO)[C@@H](c3ccc(C#Cc4cccnc4)cc3)[C@@H]2C1` the AC50 [12] was 42.6 µM (active), the AC50 [13] was 1.33 µM (active) and the AC50 [14] was 1.95 µM (active). The AC50 [15] was 0.95 µM (active) and the AC50 [16] was 1.35 µM (active).

With `CCC(=O)N1CCC2(CC1)CN(Cc1cccc(OC)c1)[C@@H](CO)c1[nH]c3cc(OC)ccc3c12` the AC50 [12] was 97.6 µM (active), the AC50 [13] was 2.63 µM (active) and the AC50 [14] was 2.56 µM (active). The AC50 [15] was 2.21 µM (active) and the AC50 [16] was 1.92 µM (active).

For `CO[C@H](C(=O)[C@@H](O)[C@@H](C)O)[C@@H]1Cc2cc3cc(OC4CC(OC5CC(O)C(O)C(C)O5)C(O)C(C)O4)c(C)c(O)c3c(O)c2C(=O)[C@H]1OC1CC(OC2CC(OC3CC(C)(O)C(O)C(C)O3)C(O)C(C)O2)C(O)C(C)O1` (stereo not given in full), the GI50 (P388) was 0.441 µM (active), the GI50 (SN12K1) was 0.348 µM (active) and the GI50 (P388/ADR) was 1.33 µM (inactive).

With `CC(C)CCC[C@@H](C)[C@H]1CC[C@H]2[C@@H]3C(=O)C=C4C[C@@H](O)CC[C@]4(C)[C@H]3CC[C@]12C` [7-OXOCHOLESTEROL] the CC50 [8] was > 40 µM (active).

— ChEMBL document CHEMBL1201862, “PubChem BioAssay data set” (2004)
